Data set [1] has as its system human tumor cells including pancreatic, breast, uterine, lung, prostate, and ovarian cancer cells. In words: Proliferation of human tumor cells in vitro (summary). Format: cell-based.
Data set [2] relates to PARP1+/+A16 fibroblasts. In words: Proliferation by BrdU incorporation. Format: cell-based. Conditions: wildtype fibroblasts; single agent. As to the method:
(§1) Proliferation of various tumor cell lines including uterine cancer Hela cells, lung carcinoma A549 cells, PARP1+/+A16 and PARP1−/− A12 fibroblasts, and several human pancreatic tumor cell lines, COLO357FG, MiaPaCa-2, AsPC-1, L3.6pl, and Panc28, is measured by BrdU incorporation. In some experiments, tumor cell proliferation is measured after 96 hours. The concentration of IIIg is titrated to show the effect of IIIg on tumor cell growth in vitro.
(§2) BrdU assay is well known in the art. Briefly, cells are cultured in the presence of the respective test substances in an appropriate 96-well MP at 37° C. for a certain period of time (1 to 5 days, depending on the individual assay system). Subsequently, BrdU is added to the cells and the cells are reincubated (usually 2-24 h). During this labeling period, the pyrimidine analogue BrdU is incorporated in place of thymidine into the DNA of proliferating cells. After removing the culture medium the cells are fixed and the DNA is denatured in one step by adding FixDenat (the denaturation of the DNA is necessary to improve the accessibility of the incorporated BrdU for detection by the antibody). The anti-BrdU-POD antibody is added and the antibody binds to the BrdU incorporated in newly synthesized, cellular DNA. The immune complexes are detected by the subsequent substrate reaction via chemiluminescent detection (based on Cell Proliferation ELISA, BrdU Chemiluminescence Protocol from Roche).
(§3) Experiments and analyses are performed according to Shaw G and Prowse DM, “Inhibition of androgen-independent prostate cancer cell growth is enhanced by combination therapy targeting Hedgehog and ErbB signaling” Cancer Cell Int. 2008 Mar. 18; 8:3.
(In general: Incorporation of labelled thymidine or its analogues reports DNA synthesis.)

Data set [3] has as its system PARP1−/− A12 fibroblasts. In words: Proliferation by BrdU incorporation. The data set is classed as cell-based. Conditions: PARP-1−/− fibroblasts; single agent. How it is done:
as §1, §2, §3

For data set [4], the system named is human pancreatic tumor cell lines, COLO357FG, MiaPaCa-2, AsPC-1, L3.6pl, and Panc28. In words: Proliferation by BrdU incorporation. Particulars: single agent. The data set is classed as cell-based. How it is done:
as §1, §2, §3

In data set [5] the test system is Colo357FG. In words: Luciferase-expressing pancreatic cancer orthotopic nude mouse model. Format: in vivo. How it is done: The therapeutic efficacy of IIIg on tumor growth and survival is evaluated in different luciferase-expressing pancreatic cancer orthotopic nude mouse models using an IVIS100 Imaging System, allowing a quantitative real time monitoring of tumor growth.
Mice are monitored daily for signs of toxicity including weight loss, diarrhea, inactivity, and general appearance.
Three days after the orthotopic implantation of 1.0×10^6 COL0357FG tumor cells in 50 μL of HBSS, when bioluminescence imaging confirmed that tumors are well established, in one experiment, mice are randomly allocated into three groups (n=10 mice per group) to receive one of the following treatments. (a) Vehicle solution for 50 μL of sterile saline; (b) IIIg (25 mg/kg) biweekly i.p.; (c) IIIg (100 mg/kg) biweekly i.p. Treatments are continued for 4 weeks. All mice are weighed weekly and observed for tumor growth. Tumor diameter is assessed with a Vernier caliper, and tumor volume (mm^3) is calculated as d^2×D/2, wherein d and D represent the shortest and longest diameters, respectively. Bulky disease is considered present when tumor burden is prominent in the mouse abdomen (tumor volume, >=2,000 mm^3).
In another experiment, mice are randomly allocated into four groups (n=10 mice per group) to receive one of the following treatments. (a) Vehicle solution for 50 μL of sterile saline; (b) IIIg (200 mg/kg) once weekly i.p.; (c) IIIg (100 mg/kg) biweekly i.p; (d) IIIg (40 mg/kg) once daily i.p. Treatments are continued for 4 weeks. All mice are weighed weekly and observed for tumor growth. Tumor diameter is assessed with a Vernier caliper, and tumor volume (mm^3) is calculated as d^2×D/2, wherein d and D represent the shortest and longest diameters, respectively. Bulky disease is considered present when tumor burden is prominent in the mouse abdomen (tumor volume, >=2,000 mm^3).
In another experiment, mice are randomly allocated into eight groups to receive one of the following treatments via oral or ip administration. (a) Vehicle solution for 50 μL of sterile saline (oral); (b) Gemcitabine (25 mg/kg) biweekly for 4 weeks (ip); (c) IIIg (200 mg/kg) once weekly (oral); (d) IIIg (200 mg/kg) biweekly (oral); (e) IIIg (200 mg/kg) once daily (oral); (f) IIIg (400 mg/kg) once weekly (oral); (g) IIIg (400 mg/kg) biweekly (oral); (h) IIIg (400 mg/kg) once daily (oral). In all treatments, IIIg is given orally. Treatments are continued for 4 weeks. All mice are weighed weekly and observed for tumor growth. Tumor diameter is assessed with a Vernier caliper, and tumor volume (mm^3) is calculated as d^2×D/2, wherein d and D represent the shortest and longest diameters, respectively. Bulky disease is considered present when tumor burden is prominent in the mouse abdomen (tumor volume, >=2,000 mm^3).
When at least 6 of 10 mice in a treatment group presented with bulky disease, the median survival duration for that group is considered to be reached. At the median survival duration of the control group, the tumor growth in mice in all groups is evaluated using the bioluminescence emitted by the tumor cells. Bioluminescence imaging is conducted using a cryogenically cooled IVIS 100 imaging system coupled to a data acquisition computer running Living Image software (Xenogen). The mice are sacrificed by carbon dioxide inhalation when evidence of advanced bulky disease is present. The day of sacrifice is considered the day of death for survival evaluation.
Three days after the orthotopic implantation of 1.0×10^6 COL0357FG tumor cells in 50 μL of HBSS, when bioluminescence imaging confirmed that tumors are well established, mice are randomly allocated into four groups to receive one of the following treatments: (a) Vehicle solution for 50 μL of sterile saline; (b) IIIg (400 mg/kg) once daily for 4 weeks [(QD5+R2)×4]; (c) oxaliplatin (10 mg/kg) biweekly for 4 weeks (ip); (d) combination of IIIg (400 mg/kg) once daily for 4 weeks [(QD5+R2)×4] with oxaliplatin (10 mg/kg biweekly, ip). […]

The mark [6] stands for this setting: intraperitoneal injection, 200 mg/kg QW×4.
[7] abbreviates: oral, 400 mg/kg [QD5+R2]×4, compared to no treatment and standard gemcitabine treatment.

SMILES strings stand for the structures.

As for `O=c1ccc2c(I)c([N+](=O)[O-])ccc2o1` [IIIg, 5-iodo-6-nitro-benzopyrone], the “Proliferation of human tumor cells” value in data set [1] is on record as “inhibits the proliferation”. For the same compound, the results for the Cell growth entry in data set [2], in data set [3] and in data set [4] were “selectively inhibits the growth of wildtype”, “not PARP-1−/− fibroblasts” and “significantly inhibits cell growth”, respectively. In data set [5] (100 mg/kg/day 2/week×4 weeks), the Signs of toxicity entry is “without signs of toxicity”. In addition, the Survival result in data set [5] (100 mg/kg/day 2/week×4 weeks) is “prolongs survival”; in data set [5] (setting [6]) it was “prolongs the survival”; in data set [5] (setting [7]), “prolongs survival”. Further, the Tumor burden entry in data set [5] (100 mg/kg/day 2/week×4 weeks) was “significantly reduces the tumor burden”; in data set [5] (setting [6]), “potently reduces the tumor burden”; in data set [5] (setting [7]), “significantly reduces the tumor burden”. The “In vivo antitumor effect, comparison of schedules” value in data set [5] (200 mg/kg/week once a week in comparison with 2 times/week or daily schedule, preliminary results) is recorded as “greater in vivo antitumor effect”. Also, the “Anti-tumor activity of the combination” value in data set [5] (IIIg 400 mg/kg once daily [(QD5+R2)×4] with oxaliplatin 10 mg/kg biweekly, ip) is given as “potent synergistic anti-tumor activity”.

(Values after US20090149417A1, “Methods and compositions for the treatment of cancer using benzopyrone-type PARP inhibitors” (priority 2007, published 2009).)
